Here are results for two compounds from US8623593B1, “GPR 17 agonists and screening assay” (Rheinische Friedrich-Wilhelms-Universität Bonn, priority 2011, dated 2014).

The target in series [1] is T1, GPR17 (Homo sapiens, UniProt Q13304). The following applies: reported in WO 2005/103291; cited from earlier work.
Target sequence in this assay (Q13304 whole entry, species assumed): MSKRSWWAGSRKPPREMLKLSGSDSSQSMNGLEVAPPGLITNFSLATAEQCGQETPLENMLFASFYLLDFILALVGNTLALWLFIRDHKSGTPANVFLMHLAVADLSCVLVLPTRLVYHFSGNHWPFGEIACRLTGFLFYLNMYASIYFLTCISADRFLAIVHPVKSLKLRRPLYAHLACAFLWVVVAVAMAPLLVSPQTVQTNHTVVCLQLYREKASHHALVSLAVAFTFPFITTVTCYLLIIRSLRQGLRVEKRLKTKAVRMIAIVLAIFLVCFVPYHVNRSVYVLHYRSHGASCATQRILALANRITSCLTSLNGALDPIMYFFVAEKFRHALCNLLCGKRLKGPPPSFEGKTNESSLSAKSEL
In series [2] the target is T1, GPR17. Nature of the series: inhibition of forskolin-stimulated cAMP production in CHO-GPR17 cells. The class given is cell-based. Also on record: expressed in transfected cells; host or cells: Flp-In T-REx CHO cells, expression induced with doxycycline. The note with it: for activation of GPR17: comparison with RA-II-150, FIG. 2. The source says: Two signal transduction pathways that influence the activity of the adenylyl cyclase in oppositional ways can be activated upon receptor activation. Whereas the Gs pathway stimulates the adenylyl cyclase-dependent catalysation of cAMP formation, the Gi pathway inhibits it. The detection of cAMP accumulation is based on the HTRF® technology described above. In this case a monoclonal antibody specific to cAMP was the donor fluorophore while the acceptor fluorophore d2 was fused to cAMP. The analysis of the Gi pathway was based on the direct activation of the adenylyl cyclase, for example, by forskolin. Upon activation, the Gi pathway inhibits the forskolin-dependent activation of the adenylyl cyclase, leading to decreased cAMP accumulation. The inhibition of forskolin-stimulated cAMP accumulation in 1321N1 or CHO cells was performed using the HTRF® cAMP dynamic kit (Cisbio Bioassays, BP 84175, France). Cells were resuspended in assay buffer with 1 mM 3-isobutyl-1-methylxanthine (IBMX) supplemented and dispensed in 384-well microplates at a density of 50,000 cells/well in a volume of 5 μl. After preincubation in assay buffer for 30 min, the cells were stimulated by adding 5 μl of agonist in the respective concentration of forskolin. The final concentration of forskolin was dependent on the cell line which was employed in the assay. Adenylyl cyclase was stimulated with 1 μM forskolin in 1321N1-GPR17 cells and with 10 μM forskolin in CHO-GPR17 cells, followed by incubation for 30 min at room temperature. The reaction was terminated by lysis of the cells, which results from the addition of 5 μl of d2-conjugate followed by the addition of 5 μl of […] (both supplements are diluted in conjugate and lysis buffer). The assay was incubated for 60 min at room temperature and time-resolved FRET signals were measured at an excitation wavelength of 320 nm using the Mithras LB 940 multimode reader (Berthold technologies, D-75323 Bad Wildbad). The evaluation of HTRFR data was performed following the instructions of the kit manufacturer. Data analysis was based on the fluorescence ratio emitted by labeled cAMP (665 nm) over the light emitted by the europium cryptate-labelled anti-cAMP (620 nm). Levels of cAMP were normalised to the amount of cAMP elevated by 10 μM or 1 μM forskolin alone.
Target sequence in this assay (Q13304 29-367): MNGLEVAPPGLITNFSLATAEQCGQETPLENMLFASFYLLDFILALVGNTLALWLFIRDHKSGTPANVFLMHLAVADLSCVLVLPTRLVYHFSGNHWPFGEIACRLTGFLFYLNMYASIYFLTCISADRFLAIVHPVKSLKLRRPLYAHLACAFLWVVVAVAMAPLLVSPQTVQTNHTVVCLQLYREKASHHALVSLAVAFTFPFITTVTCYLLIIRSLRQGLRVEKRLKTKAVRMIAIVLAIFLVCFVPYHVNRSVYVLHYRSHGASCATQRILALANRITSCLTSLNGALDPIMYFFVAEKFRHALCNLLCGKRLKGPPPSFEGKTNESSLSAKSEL

The conditions of series [3]: exposure to air and light; cited from earlier work.

`NCc1[nH]cc(CCC(=O)O)c1CC(=O)O` [PBG, porphobilinogen]: the “amounts needed in the assays” value at GPR17 [1] is “mM range”. Also, the “activation of GPR17” value at GPR17 [2] is on record as “failed”. Moreover, in series [3], the chemical stability entry was “rapidly decomposes after exposure to air and light”.

`NCC(=O)CCC(=O)O` [5-ALA, 5 amino levulinic acid]: the “amounts needed in the assays” value at GPR17 [1] is “three digit micromolar range”. The “less potent as compared with RA-II-150” value on GPR17 [2] (FIG. 2, forskolin-stimulated cAMP production) amounted to 10.000 fold. Moreover, the “inhibition of forskolin stimulated adenylylcyclase activity” value against GPR17 [2] (GPR17 CHO cells, after 5-ALA addition) was “GPR17-independent inhibition”. Also, on GPR17 [2], the “activation of GPR17” value was “confirm the activation”.
